Laboratory results: paper PMC10376691, “Inhibition of Acetylcholinesterase and Amyloid-β Aggregation by Piceatannol and Analogs: Assessing In Vitro and In Vivo Impact on a Murine Model of Scopolamine-Induced Memory Impairment” (Antioxidants, 2023)
Entries after “also recorded” stand apart in the source; their conditions may differ. Like-named read-outs stand apart in the source and are kept apart here.

Assays:
[1] = DPPH radical scavenging activity; settings: 120 μM DPPH in methanol, 37 °C, 20 min
Procedure: DPPH radical scavenging activity was assayed following a previous report, with some modifications. […] DMSO was used instead of a sample solution in the blank group. […] The scavenging activity of the DPPH radical (%) was calculated with the following equation: (△A515blank − △A515sample) ÷ △A515blank × 100%. The IC50 of the DPPH radical scavenging activity of PIC and its analogs or that of Trolox was calculated from each linear equation by three test concentrations and their radical scavenging activities.

recombinant human AChE = molecular target: T1, recombinant human AChE (Homo sapiens, UniProt P22303); test: AChE inhibitory activity in vitro (acetylthiocholine/DTNB); type: biochemical
T1 construct: purchased R&D Systems Inc. (Minneapolis, MN, USA)
Procedure: Commercially synthesized acetylthiocholine iodide was hydrolyzed using AChE to release thiocholine, which was coupled with DTNB to generate the yellowish 5-thio-2-nitrobenzoate for in vitro AChE activity assays. For the AChE inhibitory activity assay, each analog was dissolved in the DMSO, and final concentrations of 100, 200, and 500 μM were used for comparisons. An equal volume of DMSO instead of the sample solution was used in the blank group and expressed as 100% AChE activity. […] AChE inhibition (%) was calculated as follows: [(A405blank − A405sample)/(A405blank)] × 100%.

Aβ peptide (1–42) = molecular target: T2, Aβ peptide (1–42) (Homo sapiens, UniProt P05067); test: biochemical
T2 construct: The Aβ peptide (1–42) was synthesized and purchased from Kelowna International Scientific Inc; purchased Kelowna International Scientific Inc. (New Taipei, Taiwan); host or cells: chemical synthesis
Procedure: To prepare the 10 μM Aβ peptide working solution, commercial Aβ peptide was first weighted and dissolved in HFIP to 1 mM. Next, the solvent was evaporated in a hood and then re-dissolved using 100 μL of 60 mM NaOH. It was then diluted to 10 μM working solutions with 50 mM phosphate buffer (pH 7.4, containing 150 mM sodium chloride and 1 mM EDTA), following previous reports. […] DMSO instead of the sample solution was used as the control. The 50 mM phosphate buffer was used instead of the Aβ working solution as the sample blank. […] The IC50 of the inhibition against the Aβ aggregation of PIC and its analogs was calculated from each linear equation using three test concentrations and their inhibition capacities.

SH-SY5Y cells [2] = test: Neuroprotection against Aβ peptide (25–35)-induced cell deaths (MTT); type: cell-based, human; settings: pre-treatment 1, 2 and 10 μM for 24 h, then 40 μg/mL Aβ (25–35) 24 h; vs control p < 0.05
Procedure: (§1) The human SH-SY5Y neuroblastoma cell lines (CRL-2266, Lot No. 58979771) were purchased from American Type Culture Collection (Manassas, VA, USA) and used as models to investigate PIC and its analogs for neuroprotective activities against Aβ-induced cell deaths and the stimulation of neurite outgrowths. The SH-SY5Y cells were grown in DMEM/F-12 medium supplemented with 10% FBS at 37 °C under a humidified atmosphere and 5% CO2 [41]. […]. The SH-SY5Y cells (10,000 cells/well) were seeded and cultured in a DMEM/F-12 medium containing 10% FBS for 24 h at 37 °C under a humidified atmosphere and 5% CO2. […] The medium was then removed, and 40 μg/mL Aβ peptide (25–35) (dissolved in PBS) or an equal aliquot of PBS was added to the medium for another 24 h culture. The MTT was used to evaluate cell viability, and the absorbance at 570 nm was determined. The DMSO used instead of the sample solution was blank (recognized as 100%), and each treatment was expressed as relative cell viability (%). To study the stimulation of neurite outgrowth, the SH-SY5Y cells (5000 cells/well) were seeded on a 96-well plate pre-coated with poly-L-lysine and then cultured in the DMEM/F-12 medium containing 10% FBS overnight at 37 °C under a humidified atmosphere and 5% CO2. After being removed from the culture medium, each PIC, GNT, RHA, and isoRHA (at a final concentration of 10 μM in the 0.1%DMSO) or 0.1% DMSO (the control) was added to the DMEM/F-12 medium containing 10% FBS and refreshed every three days. On day 3 and day 6, each of the culture plates was photographed using an inverted microscope (ECLIPSE TS100, Nikon Instruments Inc., Tokyo, Japan). The culture medium was removed and washed with PBS, and the cultured cells in each well were fixed with 4% paraformaldehyde. To measure cell viability and quantify the neurite outgrowths of the treated SH-SY5Y in a 96-well plate, the neurite outgrowth staining kit (a two-color fluorescence assay kit) was used, following a previous report or the protocol in the manufacturer’s manual (publication number: MAN0007224), which included a cell membrane-stained fluorescent dye (orange-red fluorescence), a cell viability indicator (green fluorescence), and a reagent for background masking. The fluorescence ratios of Ex555nm/Em565nm and Ex495nm/Em515nm were determined for the neurite outgrowths and the cell viabilities, respectively. The value for the control was recognized as 100%, and each treatment was expressed relative to the control.

SH-SY5Y cells [3] = test: Cytotoxicity on SH-SY5Y cells (MTT); type: cell-based; settings: 1, 2, 5 and 10 μM, MTT (Figure S1)
Procedure: as §1, with “To study the stimulation of neurite outgrowth, the SH-SY5Y cells (5000 cells/well) were seeded on a 96-well plate pre-coated with poly-L-lysine and then cultured in the DMEM/F-12 medium containing 10% FBS overnight at 37 °C under a humidified atmosphere and 5% CO2. After being removed from the culture medium, each PIC, GNT, RHA, and isoRHA (at a final concentration of 10 μM in the 0.1%DMSO) or 0.1% DMSO (the control) was added to the DMEM/F-12 medium containing 10% FBS and refreshed every three days. On day 3 and day 6, each of the culture plates was photographed using an inverted microscope (ECLIPSE TS100, Nikon Instruments Inc., Tokyo, Japan). The culture medium was removed and washed with PBS, and the cultured cells in each well were fixed with 4% paraformaldehyde.” left out, “The value for the control was recognized as 100%, and each treatment was expressed relative to the control.” left out
The following supporting information can be downloaded at: https://www.mdpi.com/article/10.3390/antiox12071362/s1. […] The MTT was used to evaluate cell viability, and the absorbance at 570 nm was determined. The DMSO used instead of the sample solution was blank (recognized as 100%), and each treatment was expressed as relative cell viability (%). […]

[4] = Neurite outgrowth and cell viability, two-color fluorescence assay kit; type: cell-based; settings: human, 3-day or 6-day treatment, green fluorescence, read-out: cell viability relative to the control
Procedure: (§2) The SH-SY5Y cells were grown in DMEM/F-12 medium supplemented with 10% FBS at 37 °C under a humidified atmosphere and 5% CO2 [41]. […] The MTT was used to evaluate cell viability, and the absorbance at 570 nm was determined. The DMSO used instead of the sample solution was blank (recognized as 100%), and each treatment was expressed as relative cell viability (%). To study the stimulation of neurite outgrowth, the SH-SY5Y cells (5000 cells/well) were seeded on a 96-well plate pre-coated with poly-L-lysine and then cultured in the DMEM/F-12 medium containing 10% FBS overnight at 37 °C under a humidified atmosphere and 5% CO2. After being removed from the culture medium, each PIC, GNT, RHA, and isoRHA (at a final concentration of 10 μM in the 0.1%DMSO) or 0.1% DMSO (the control) was added to the DMEM/F-12 medium containing 10% FBS and refreshed every three days. On day 3 and day 6, each of the culture plates was photographed using an inverted microscope (ECLIPSE TS100, Nikon Instruments Inc., Tokyo, Japan). The culture medium was removed and washed with PBS, and the cultured cells in each well were fixed with 4% paraformaldehyde. To measure cell viability and quantify the neurite outgrowths of the treated SH-SY5Y in a 96-well plate, the neurite outgrowth staining kit (a two-color fluorescence assay kit) was used, following a previous report or the protocol in the manufacturer’s manual (publication number: MAN0007224), which included a cell membrane-stained fluorescent dye (orange-red fluorescence), a cell viability indicator (green fluorescence), and a reagent for background masking. […] The value for the control was recognized as 100%, and each treatment was expressed relative to the control.

SH-SY5Y cells [5] = test: as above; type: cell-based; settings: 10 μM; for stimulation of neurite outgrowths: 3-day or 6-day treatment, orange-red fluorescence, vs control
Procedure: as §2

[6] = oral administration to rats; cited from earlier work
[7] = rats, cited from earlier work
[8] = tested on: mild to moderate AD patients; settings: human trial, 52 weeks, cited from earlier work
[9] = tested on: scopolamine-induced amnesiac ICR mice; test: Passive avoidance test in scopolamine-induced amnesiac ICR mice; type: in vivo, mouse; settings: PIC 50 mg/kg oral once a day, donepezil 5 mg/kg oral, scopolamine 1 mg/kg i.p.
Source text: The scopolamine-induced cognitive dysfunctions of amnesiac ICR mice were used to evaluate the effects of PIC pre-treatments on the improvement of learning and memory functions, following previous reports. The animal experimental protocols were reviewed and approved by the Institutional Animal Care and Use Committee, Taipei Medical University (No. LAC-2021-0488). After a two-week acclimation, the mice were randomly divided into four groups (N = 5 for each group). In the first stage, the mice in the PIC group were orally pre-treated with PIC (50 mg/kg) using a feeding tube, once a day from day 1 to day 7; the mice in the blank, control, and donepezil groups were treated with the same volume of distilled water from day 1 to day 7. In the second stage, on day 8 and day 9, the mice in the PIC group and the donepezil group were orally treated once with PIC (50 mg/kg) and donepezil (positive control, 5 mg/kg), respectively, using a feeding tube; the mice in the blank and the control groups were treated with the same volume of distilled water. After 30 min, each mouse was injected intraperitoneally with scopolamine (1 mg/kg, dissolved in PBS), and the mice in the blank group were each injected with an equal volume of PBS instead of the scopolamine solution. Again, 30 min after the scopolamine or PBS injection, a learning and memory evaluation was performed on each mouse with the use of a 2-day passive avoidance test. All the mice were sacrificed at the end of the animal experiments, and the brain tissues of the mice in each group were isolated, weighted, and stored at −80 °C for further use.
A 2-day passive avoidance test, which included an acquisition trial on the first day and a retention trial on the second day, was used to evaluate the learning and memory functions of the scopolamine-induced cognitive dysfunctions of amnesiac ICR mice after PIC and donepezil treatments, following previous reports. A shuttle chamber (AccuScan Instruments Inc., Columbus, OH, USA) with a light box and a dark box separated by a sliding door was used. On day 8, after acclimation around the shuttle chamber for 30 min, each scopolamine-injected or PBS-injected mouse was placed in the light box for the acquisition trial. Once the mouse entered the dark box, the step-through latency (s) was recorded, and the sliding door was closed at the same time. Immediately after, the mouse was administered an electric foot shock (0.3 mA for 3 s) via the wired metal floor and then sent back to the cage. […] The step-through latency (period of time that each mouse stayed in the light box) was recorded again. […] The protein content of the whole brain extracts from the mice was quantified using the BCA protein kit, with bovine serum albumin as the standard protein. […]

[10] = 500 mg once daily up to 1000 mg twice daily

T1 sequence (P22303 32-614): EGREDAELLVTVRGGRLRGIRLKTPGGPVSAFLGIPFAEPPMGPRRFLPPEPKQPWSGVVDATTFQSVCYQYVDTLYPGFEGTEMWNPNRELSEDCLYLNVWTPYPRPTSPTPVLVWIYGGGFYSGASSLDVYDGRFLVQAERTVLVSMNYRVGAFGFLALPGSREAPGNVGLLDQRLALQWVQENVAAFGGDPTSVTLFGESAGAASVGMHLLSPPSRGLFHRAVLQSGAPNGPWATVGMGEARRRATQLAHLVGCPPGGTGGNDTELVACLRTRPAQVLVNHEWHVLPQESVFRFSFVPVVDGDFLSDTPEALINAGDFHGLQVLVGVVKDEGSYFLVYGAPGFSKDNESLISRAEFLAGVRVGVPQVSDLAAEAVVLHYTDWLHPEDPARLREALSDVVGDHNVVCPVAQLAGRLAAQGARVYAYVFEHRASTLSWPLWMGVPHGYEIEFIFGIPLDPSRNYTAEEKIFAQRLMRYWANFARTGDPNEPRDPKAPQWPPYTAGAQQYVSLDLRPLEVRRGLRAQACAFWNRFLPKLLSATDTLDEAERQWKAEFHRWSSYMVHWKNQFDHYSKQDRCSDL
T2 sequence (P05067 672-713): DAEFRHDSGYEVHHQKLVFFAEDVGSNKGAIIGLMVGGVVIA

| SMILES | IC50 [1] [µM] | IC50 (recombinant human AChE) [µM] | IC50 (Aβ peptide (1–42)) [µM] | neuroprotection: cell viability against Aβ peptide (25–35)-induced cell deaths (SH-SY5Y cells [2]) | cytotoxicity on SH-SY5Y cells (SH-SY5Y cells [3]) | stimulation of neurite outgrowths (SH-SY5Y cells [5]) | further results |
| --- | --- | --- | --- | --- | --- | --- | --- |
| Oc1cc(O)cc(C=Cc2c(O)cccc2O)c1 [GNT, 3,5,2′,6′-tetrahydroxystilbene] | 97 | 276 | 1.76 | elevated cell viabilities | insignificant cytotoxicity | not PIC nor GNT; also recorded: not PIC and GNT | viability at 10 µM [4]: 80% |
| COc1ccc(/C=C/c2cc(O)cc(O)c2)cc1O [RHA, 3,5,3′-trihydroxy-4′-methoxystilbene] | 57.8 | 322 | 2.93 | elevated cell viabilities | – | stimulate neurite outgrowths; also recorded: showed stimulated activities toward neurite outgrowths; also recorded: showed stimulatory activity in neurite outgrowths | viability at 10 µM ([4]; SH-SY5Y neuroblastoma cells): 80%; total neurite lengths in living SH-SY5Y cells, fold of the control (SH-SY5Y cells [5]; calculated): 1.375 fold |
| Oc1ccc(C=Cc2cc(O)cc(O)c2)cc1 [RSV, 3,5,4′-trihydroxystilbene] | – | – | – | elevated cell viabilities | insignificant cytotoxicity | – | bioavailability [6]: 29.8%; half-life [6]: 1.48 h; AUC0–8h in plasma, intact compound ([7]; co-administration of PIC and RSV, each at 180 μmol/kg): 4.1 µM·h; AUC0–8h in plasma, intact compound ([7]; intragastric, 90 μmol/kg): 2.0 µM·h; AUC0–8h in plasma, intact compound ([7]; intragastric, 180 μmol/kg): 4.7 µM·h; AUC0–8h in plasma, intact compound ([7]; intragastric, 360 μmol/kg): 8.6 µM·h; crossing of the blood–brain barrier [8, 10]: could cross the blood–brain barrier; safety and tolerance [8, 10]: safe and had good tolerance with adverse effects of nausea, diarrhea, and weight loss; Aβ42 and Aβ40 levels in the cerebrospinal fluid [8]: reduced |
| Cc1c(C)c2c(c(C)c1O)CCC(C)(C(=O)O)O2 (stereo not shown) [Trolox, 6-hydroxy-2,5,7,8-tetramethylchroman-2-carboxylic acid, reference compound] | 83.1 | – | – | – | – | – | – |
| COc1cc2c(cc1OC)C(=O)C(CC1CCN(Cc3ccccc3)CC1)C2 (stereo not shown) [donepezil, reference compound] | – | – | – | – | – | – | step-through latency, acquisition trial (first day) [9]: no significant difference among the groups; step-through latency, retention trial (second day) ([9]; vs control p < 0.05): longer staying time |
